Laboratory results: ChEMBL document CHEMBL4038308, “Lipophosphonoxins II: Design, Synthesis, and Properties of Novel Broad Spectrum Antibacterial Agents” (J Med Chem, 2017)
≈ marks a conversion by molar mass, not a printed value. Calls of active or inactive are those of the source. The rule behind the calls is not given here.

Tests used:
[1] = test system: Staphylococcus haemolyticus; test: Antibacterial activity against fluoroquinolne-resistant Staphylococcus haemolyticus 16568 after 24 hrs by microdilution method; type: functional; details: Staphylococcus haemolyticus, 16568, 24 h
[2] = test system: Stenotrophomonas maltophilia; test: Antibacterial activity against Stenotrophomonas maltophilia S2-23 after 24 hrs by microdilution method; type: functional; details: S2-23, 24 h
[3] = test system: Enterococcus faecium; test: Antibacterial activity against vancomycin-resistant Enterococcus faecium 419/ana clinical isolates after 24 hrs by microdilution method; type: functional
[4] = test system: Acinetobacter baumannii; test: Antibacterial activity against Acinetobacter baumannii A3-08 after 24 hrs by microdilution method; type: functional; details: A3-08, 24 h
[5] = test system: Bacillus subtilis; test: Antibacterial activity against Bacillus subtilis after 24 hrs by microdilution method; type: functional
[6] = test system: Staphylococcus aureus; test: Antibacterial activity against methicillin-resistant Staphylococcus aureus 4591 clinical isolates after 24 hrs by microdilution method; type: functional; details: Staphylococcus aureus, 4591, 24 h
[7] = test system: Escherichia coli; test: Antibacterial activity against Escherichia coli CCM 3954 after 24 hrs by microdilution method; type: functional; details: CCM 3954, 24 h
[8] = test system: Pseudomonas aeruginosa; test: Antibacterial activity against Pseudomonas aeruginosa 16575 after 24 hrs by microdilution method; type: functional; details: Pseudomonas aeruginosa, 16575, 24 h
[9] = test system: Staphylococcus aureus; test: Antibacterial activity against Staphylococcus aureus CCM 4223 after 24 hrs by microdilution method; type: functional; details: CCM 4223, 24 h
[10] = test system: Enterococcus faecalis; test: Antibacterial activity against Enterococcus faecalis CCM 4224 after 24 hrs by microdilution method; type: functional; details: CCM 4224, 24 h
[11] = test system: Lipid bilayer; test: Binding affinity to DOPG large unilamellar vesicle assessed as carboxyfluorescein leakage at 10 mg/L after 20 secs by fluorescence-based assay relative to control
[12] = test system: Pseudomonas aeruginosa; test: Antibacterial activity against Pseudomonas aeruginosa CCM 3955 after 24 hrs by microdilution method; type: functional; details: CCM 3955, 24 h
[13] = test system: Salmonella enteritidis; test: Antibacterial activity against Salmonella enteritidis S2-25 after 24 hrs by microdilution method; type: functional, Salmonella enterica subsp. enterica serovar Enteritidis; details: Salmonella enterica, S2-25, 24 h
[14] = test system: Burkholderia multivorans; test: Antibacterial activity against Burkholderia multivorans after 24 hrs by microdilution method; type: functional
[15] = test system: Staphylococcus epidermidis; test: Antibacterial activity against Staphylococcus epidermidis 8700/B after 24 hrs by microdilution method; type: functional
[16] = test system: Streptococcus agalactiae; test: Antibacterial activity against Streptococcus agalactiae after 24 hrs by microdilution method; type: functional
[17] = test system: Escherichia coli; test: Antibacterial activity against Escherichia coli 16702 after 24 hrs by microdilution method; type: functional; details: Escherichia coli, 16702, 24 h
[18] = test system: Bacillus subtilis; test: Antibacterial activity against Bacillus subtilis assessed as inhibition of peptidoglycan synthesis at 100 mg/L after 50 mins by [3H]-N-acetylglucosamine incorporation assay; type: functional
[19] = test system: Bacillus subtilis; test: Antibacterial activity against Bacillus subtilis assessed as inhibition of plasma membrane lipids synthesis at 100 mg/L after 50 mins by [3H]-sodium acetate incorporation assay; type: functional
[20] = test system: Bacillus subtilis; test: Antibacterial activity against Bacillus subtilis assessed as inhibition of DNA synthesis at 100 mg/L after 50 mins by [3H]thymidine incorporation assay; type: functional
[21] = test system: Bacillus subtilis; test: Antibacterial activity against Bacillus subtilis assessed as inhibition of RNA synthesis at 100 mg/L after 50 mins by [3H]-uridine incorporation assay; type: functional
[22] = test system: Bacillus subtilis; test: Antibacterial activity against Bacillus subtilis assessed as inhibition of protein synthesis at 100 mg/L after 50 mins by [35S]-methionine incorporation assay; type: functional
[23] = Pore forming activity across black lipid bilayer membranes assessed as induction of variation in membrane current by measuring pore conductance at 5 ug/ml
[24] = test system: Bacillus subtilis; test: Antibacterial activity against Bacillus subtilis assessed as inhibition of peptidoglycan synthesis at 10 mg/L after 50 mins by [3H]-N-acetylglucosamine incorporation assay; type: functional
[25] = test system: Bacillus subtilis; test: Antibacterial activity against Bacillus subtilis assessed as inhibition of plasma membrane lipids synthesis at 10 mg/L after 50 mins by [3H]-sodium acetate incorporation assay; type: functional
[26] = test system: Bacillus subtilis; test: Antibacterial activity against Bacillus subtilis assessed as inhibition of RNA synthesis at 10 mg/L after 50 mins by [3H]-uridine incorporation assay; type: functional
[27] = test system: Bacillus subtilis; test: Antibacterial activity against Bacillus subtilis assessed as inhibition of protein synthesis at 10 mg/L after 50 mins by [35S]-methionine incorporation assay; type: functional
[28] = test system: Bacillus subtilis; test: Antibacterial activity against Bacillus subtilis assessed as inhibition of DNA synthesis at 10 mg/L after 50 mins by [3H]thymidine incorporation assay; type: functional

With CCCCCCCCCCCCCCOP(=O)(CCN(CCCNC(=N)N)CCCNC(=N)N)OC[C@H]1O[C@@H](n2ccc(=O)[nH]c2=O)[C@H](O)[C@@H]1O (stereo partly drawn) as the compound, how does the MIC [1] read?
The MIC was 3.13 µg/mL (≈ 4.2 µM).

What about the MIC [2] of the same compound?
Its MIC is 12.5 µg/mL (≈ 16.8 µM).

What about the MIC [3] of the same compound?
The MIC was 50 µg/mL (≈ 67 µM).

And the MIC [4]?
The MIC was 12.5 µg/mL (≈ 16.8 µM).

What about the MIC [5] of the same compound?
The MIC was 1.56 µg/mL (≈ 2.09 µM).

What about the MIC [6] of the same compound?
Its MIC is 6.25 µg/mL (≈ 8.38 µM).

And the MIC [7]?
Its MIC is 3.13 µg/mL (≈ 4.2 µM).

And the MIC [8]?
The MIC was 6.25 µg/mL (≈ 8.38 µM).

What about the MIC [9] of the same compound?
Its MIC is 6.25 µg/mL (≈ 8.38 µM).

What about the MIC [10] of the same compound?
Its MIC is 12.5 µg/mL (≈ 16.8 µM).

What about the Activity [11] of the same compound?
Its Activity is “Active”.

And the MIC [12]?
The MIC was 3.13 µg/mL (≈ 4.2 µM).

What about the MIC [13] of the same compound?
Its MIC is 3.13 µg/mL (≈ 4.2 µM).

And the MIC [14]?
Its MIC is 100 µg/mL (≈ 134 µM).

What about the MIC [15] of the same compound?
The MIC was 3.13 µg/mL (≈ 4.2 µM).

What about the MIC [16] of the same compound?
Its MIC is 3.13 µg/mL (≈ 4.2 µM).

What about the MIC [17] of the same compound?
The MIC was 3.13 µg/mL (≈ 4.2 µM).

Which inhibition [18] does the source give for CCn1cc(C(=O)O)c(=O)c2ccc(C)nc21 here?
Its inhibition is “Active”.

And the inhibition [19]?
The inhibition was “Active”.

What about the inhibition [20] of the same compound?
Its inhibition is “Active”.

What about the inhibition [21] of the same compound?
Its inhibition is “Active”.

And the inhibition [22]?
Its inhibition is “Active”.

With CCCCCCCCCC(=O)N[C@@H](Cc1c[nH]c2ccccc12)C(=O)N[C@@H](CC(N)=O)C(=O)N[C@@H](CC(=O)O)C(=O)N[C@@H]1C(=O)NCC(=O)N[C@@H](CCCN)C(=O)N[C@@H](CC(=O)O)C(=O)N[C@H](C)C(=O)N[C@@H](CC(=O)O)C(=O)NCC(=O)N[C@H](CO)C(=O)N[C@@H]([C@H](C)CC(=O)O)C(=O)N[C@@H](CC(=O)c2ccccc2N)C(=O)O[C@@H]1C as the compound, how does the Activity [23] read?
Its Activity is 500 pS.

What does the source list for O=C(N[C@H](CO)[C@H](O)c1ccc([N+](=O)[O-])cc1)C(Cl)Cl?
inhibition [24]: Active; inhibition [25]: Active; inhibition [26]: Active; inhibition [27]: Active; inhibition [28]: Active
